Legend:
[1] = target: T1, ZenARe; experiment: X-ray crystal structure (cocrystallized with ZEN, […] Å); stopped-flow tryptophan fluorescence of product binding ([…] °C, KP,net); design: species or system Rhodococcus erythropolis
T1 construct: gene zenA; C-terminal 6xHis-tag

[2] = target: T2, ZenAScfl H286Y (Streptomyces coelicoflavus, UniProt A0A6N9UBA7, H286Y); experiment: X-ray crystal structure, cocrystallized with […] ZEN, […] Å; assay type: binding
T2 construct: gene G3I46_00910; C-terminal 6xHis-tag

[3] = target: T1, ZenARe; experiment: stopped-flow tryptophan fluorescence ([…] °C, net dissociation constant of two-step binding); steady-state KM […]; design: species or system Rhodococcus erythropolis
[4] = target: the molecule itself; experiment: SEC-MALS; size exclusion chromatography and multiangle light scattering of the 6xHis-tagged enzyme; conditions in the Supporting Information

T2 sequence (A0A6N9UBA7 entry or part of it H286Y): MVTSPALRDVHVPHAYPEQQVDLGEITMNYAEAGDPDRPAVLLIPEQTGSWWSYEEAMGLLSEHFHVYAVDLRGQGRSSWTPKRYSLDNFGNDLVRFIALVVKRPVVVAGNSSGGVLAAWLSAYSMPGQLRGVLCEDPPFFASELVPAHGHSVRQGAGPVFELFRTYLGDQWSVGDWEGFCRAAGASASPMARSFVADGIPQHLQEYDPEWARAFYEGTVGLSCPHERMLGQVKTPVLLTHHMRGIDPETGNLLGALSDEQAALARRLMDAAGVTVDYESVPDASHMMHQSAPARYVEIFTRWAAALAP

**Q.** How did the Kd [1] turn out when `C[C@H](O)CCCC(=O)CCC/C=C/c1cc(O)cc(O)c1C(=O)O` [HZEN, (S,E)-2,4-dihydroxy-6-(10-hydroxy-6-oxoundec-1-en-1-yl)benzoic acid] was run?
**A.** 10 ± 1 µM

**Q.** What about the “X-ray crystal structure, cocrystallized with 5 mM ZEN, 1.53 Å” value [2] of the same molecule?
**A.** a subsequently calculated Polder map revealed a better fit of product HZEN in the active site

**Q.** How did the Kd [3] turn out when `C[C@H]1CCCC(=O)CCC/C=C/c2cc(O)cc(O)c2C(=O)O1` [ZEN, (S,E)-14,16-dihydroxy-3-methyl-3,4,5,6,9,10-hexahydro-1H-benzo[c][1]oxacyclotetradecine-1,7(8H)-dione] was run?
**A.** 0.21 ± 0.04 µM

B1: ZEN lactonase ZenA_(Scfl) of Streptomyces coelicoflavus (enzyme)
chain: MVTSPALRDVHVPHAYPEQQVDLGEITMNYAEAGDPDRPAVLLIPEQTGSWWSYEEAMGLLSEHFHVYAVDLRGQGRSSWTPKRYSLDNFGNDLVRFIALVVKRPVVVAGNSSGGVLAAWLSAYSMPGQLRGVLCEDPPFFASELVPAHGHSVRQGAGPVFELFRTYLGDQWSVGDWEGFCRAAGASASPMARSFVADGIPQHLQEYDPEWARVFYEGTVGLSCPHERMLGQVKTPVLLTHHMRGIDPETGNLLGALSDEQALRARRLMDSAGVTVDYESVPDASHMMHQSAPARYVEIFTRWAAALAP
**Q.** How did the “stoichiometry N” value [4] turn out when B1 was run?
**A.** 4

B2: ZEN lactonase ZenARe of Rhodococcus erythropolis PFA D8-1 (enzyme)
chain: MAEEGTRSEAADAATQARQLPDSRNIFVSHRFPERQVDLGEVVMNFAEAGSPDNPALLLLPEQTGSWWSYEPVMGLLAENFHVFAVDIRGQGRSTWTPRRYSLDNFGNDLVRFIALVIKRPVVVAGNSSGGLLAAWLSAYAMPGQIRAALCEDAPFFASELVPAYGHSVLQAAGPAFELYRDFLGDQWSIGDWKGFVEAAKASPAKAMQLFPTPDEAPQNLKEYDPEWGRAFFEGTVALHCPHDRMLSQVKTPILITHHARTIDPETGELLGALSDLQAEHAQDIIRSAGVRVDYQSHPDALHMMHLFDPARYAEILTSWSATLPAND
**Q.** Which “stoichiometry N” value [4] does the source give for B2 here?
**A.** 2

Source: paper PMC10913051, “Bacterial Lactonases ZenA with Noncanonical Structural Features Hydrolyze the Mycotoxin Zearalenone” (ACS Catalysis, 2024)
